{"source": "patent US10501800B2", "about": "“Breast cancer prognosis” (Regents of the University of Minnesota, priority 2012, dated 2019)", "key": {"[1]": {"system": "BT-474 cells", "experiment": "MTT proliferation assay in BT-474 cells", "assay_type": "cell-based, human", "settings": "MTT assays over six days in vitro; data not shown", "method": "Cell proliferation was measured using MTT assays (3-[4,5-dimethylthiazol-2-yl]-2,5-diphenyltetrazolium bromide, Sigma catalog #M2128). In 24-well plates, 1×10^4 cells/well were plated in cMEM (inducible PR expression was induced with AP21967 (10^−9 M) for 2 days), cells were washed and steroid starved in modified IMEM supplemented with 5% dextran-coated charcoal-treated (DCC) FBS for 1 day before the addition of R5020 (10^−8 M). At days 0, 2, 4, 6, cell proliferation was determined by adding 60 ul MTT (5 mg/ml) to each 0.5 ml cell culture well for 3 hours, medium was carefully removed and solublization solution (90% v/v DMSO/PBS) was added to lyse the cells. Lysate absorbance (650 and 570 nm) was measured using a plate reader. 650 nm measurements were subtracted from 570 nm measurements and sample means were normalized to day zero."}, "[2]": {"system": "breast cancer", "settings": "in vivo; cited from earlier work"}, "[3]": {"system": "BT-474 tumor", "settings": "xenograft models; cited from earlier work"}, "[4]": {"system": "PR target genes (CHN2, RGS2, ACOT6) in BT-474 human breast cancer cells", "experiment": "RT-qPCR of PR target genes in BT-474 cells, with or without MEK inhibitor", "assay_type": "cell-based", "settings": "R5020 10^−8 M plus RU486 10^−7 M, 6 h", "method": "For reverse transcription quantitative polymerase chain reaction (RT-qPCR) assays, 5×10^5 cells/well were plated in 6-well dishes, serum starved in modified IMEM for 1 day before treatments (see individual figures). RNA was extracted using TriPure reagent (Roche, catalog #11667157001) and cDNA was created using the Transcriptor cDNA first-strand cDNA synthesis kit (Roche, catalog #04897030001). Relative expression levels were determined by qPCR assays performed on a Roche LightCycler II using SYBR green master-mix (Roche, catalog #04887352001). Target gene quantification levels were normalized to the expression of standard housekeeper genes: TBP, ACTB, and/or GAPDH. For cells expressing inducible PR, the protocol was the same as above, except prior to ligand treatments, the cells were induced with AP21967 (10^−9 M) for 2 d.\nFor experiments using MEK inhibitors, BT-474 cells were plated in […] dishes at 5×10^5 cells/well. One day later, the cells were washed and serum starved in modified IMEM for 1d. These cells were pre-treated with the MEK inhibitor U0126 (5 uM, EMD Chemicals, catalog #662005) for 30 min R5020 (10^−8 M) and/or RU486 (10^−7 M) was then added to cell culture wells for 6 h before RNA/protein isolation and RT-qPCR/western blotting was performed, as described above."}, "[5]": {"system": "PR target genes (MSX2, RGS2, MAP1A, PDK4) in MCF-7 cells", "experiment": "RT-qPCR of PR target genes in MCF-7 cells stably expressing WT or KR PR", "assay_type": "cell-based, human", "settings": "R5020 10^−8 M plus RU486 10^−7 M, 6 h"}, "[6]": {"system": "PR target genes in T47D cells expressing WT PR, SUMO-deficient PR (KR) or empty vector", "experiment": "Gene expression profiling (Illumina HT-12v4) of T47D cell lines treated with progesterone or antiprogestins", "assay_type": "cell-based, human", "method": "T47D cells stably expressing pIRES-neo3 empty vector, WT or KR PR were serum starved in modified IMEM (Gibco, catalog #A10488) for 1 day, treated with R5020 (10^−8 M) or vehicle control for 6 h before RNA extraction using a RNeasy kit (QIAgen, catalog #74104). Six h of progestin treatment allowed for substantial PR-dependent gene expression as compared to prior studies (Jacobsen et al., 2005; Richer et al., 2002). DNase I treated (QIAgen, catalog #79254) RNA samples from duplicate experiments were prepared for expression analysis using the Illumina HT-12v4 bead chip platform according to manufacture's protocols. Data were analyzed within R software using the Bioconductor (Gentleman et al., 2004) package called lumi where raw intensities were log2 transformed and quantile normalized. Differentially expressed genes were analyzed using the limma package, where empirical Bayes was used to better estimate the variance of the genes. Gene expression data presented contain log2 normalized intensities and biological comparisons presented (e.g. R5020/vehicle) contain log2 fold change with the Benjamini and Hochberg (BH) adjusted P value (Benjamini and Hochberg, 1995). To generate the heat map in FIG. 1C, unsupervised hierarchical clustering of genes was carried out using heatmap. 2 function in the R package gplots. Clustering was performed using Euclidean distance and complete linkage. Rows were scaled to have mean zero and standard deviation equal to one.\nGene expression profiles in T47D cell lines treated with antiprogestins were obtained using identical methods as described above, except for these notable differences. After serum starvation, cells stably expressing empty vector, WT, or KR PR were treated for 6 hours under one of eight possible conditions: (1) ethanol (vehicle control), (2) progesterone (10^−8 M), (3) RU486 (10^−7 M), (4) aglepristone (10^−7 M), (5) onapristone (10^−7 M), (6) RU486 (10^−7 M) plus progesterone (10^−8 M), (7) aglepristone (10^−7 M) plus progesterone (10^−8 M), or (8) onapristone (10^−7 M) plus progesterone (10^−8 M). Gene expression levels were measured, normalized, analyzed, and heat maps were generated using the methods described above.\nRaw microarray data from two independent microarray experiments (both performed using the Illumina HT-12v4 platform described above) were combined and normalized together within R software using the Bioconductor (Gentleman et al., 2004) package called lumi where raw intensities were log 2 transformed and quantile normalized.\nSample Sizes & Composition: For the first analysis, two KR cell replicates were used that had been stimulated with R5020 a synthetic progestin in the first experiment and three KR cell replicates that had been stimulated with progesterone in the second experiment. The same was accomplished regarding the corresponding WT cell replicates. Pertaining to the first analysis, therefore, a sample size of n=5 was used for each of the two groups (KR & WT). Regarding the second analysis, we used three KR cell replicates that had been co-treated with progesterone plus onapristone in the second experiment; and we used three WT cell replicates that had been co-treated with progesterone plus onapristone also in the second experiment (n=3 for each of the two groups). Regarding the third analysis, we used three KR cell replicates that had been co-treated with progesterone plus RU486 in the second experiment; and we used three WT cell replicates that had been co-treated with progesterone plus RU486 also in the second experiment (n=3 for each of the two groups). Regarding the fourth analysis, three KR cell replicates was used that had been co-treated with progesterone plus onapristone; and three WT cell replicates were used that had been treated with vehicle control (ethanol) (n=3 for each of the two groups). […]"}}, "note": "Entries after “also recorded” stand apart in the source; their conditions may differ.", "data": [{"smiles": "CC#C[C@]1(O)CC[C@H]2[C@@H]3CCC4=CC(=O)CCC4=C3[C@@H](c3ccc(N(C)C)cc3)C[C@@]21C", "note": "[RU486, (10S,11S,14S,15S,17R)-17-[4-(dimethylamino)phenyl]-14-hydroxy-15-methyl-14-(prop-1-yn-1-yl)tetracyclo[8.7.0.0^ {2,7}.0^{11,15}]heptadeca-1,6-dien-5-one]", "values": [{"measurement": "BT-474 cell proliferation", "setting": "[1]", "result": "significantly blocks"}, {"measurement": "outcome of phase II clinical trials as a breast cancer treatment", "setting": "[2]", "result": "unsuccessful"}, {"measurement": "BT-474 tumor growth", "setting": "[3]", "result": "dramatically inhibits"}, {"measurement": "R5020-induced expression of CHN2, RGS2 and ACOT6", "setting": "[4]", "result": "entirely blocked"}, {"measurement": "R5020-induced mRNA expression of MSX2, RGS2, MAP1A and PDK4", "setting": "[5]", "result": "completely abolished"}, {"measurement": "expression of progesterone-regulated PR target genes", "setting": "[6]; T47D cells expressing SUMO-deficient PR (KR), antiprogestin 10^−7 M alone or plus progesterone 10^−8 M, 6 h", "result": "caused many PR target genes to become upregulated"}, {"measurement": "number of genes significantly differentially expressed between KR and WT cells", "setting": "[6]; both cell lines co-treated with progesterone plus the antiprogestin", "result": 7, "unit": "genes"}, {"measurement": "significant differential expression of the 15 biomarker genes between KR and WT cells", "setting": "[6]; both cell lines co-treated with progesterone plus the antiprogestin, with the exception of one gene (CDH10)", "result": "completely annulled"}, {"measurement": "agonistic activity", "setting": "[6]; cells expressing hyperactive / SUMO-deficient PR (KR)", "result": "substantial agonistic activity; also recorded: agonistic properties"}]}]}
